The record followed here is patent US12276657B2, “Detection of PAR in the CSF of patients with Parkinson's disease” (The Johns Hopkins University, priority 2017, dated 2025).

The test system of one test is primary cortical neurons. Kind of test: Cell death of primary cortical neurons, Hoechst and propidium iodide staining. The test is classed as cell-based, mouse. The conditions noted are these: for α-syn PFF toxicity (cell death, FIGS. 47 and 48): pre-treated 1 h: ABT-888 10 μM, Z-VAD 20 μM, Nec-1 20 μM, 3-MA 500 μM, α-syn PFF 14 days; for α-syn PFF-mediated cell death (PI staining): inhibitor pre-incubated 1 h (ABT-888 10 μM, AG-014699 1 μM, BMN 673 10 μM), α-syn PFF 5 μg/ml 14 days. The method, then: SH-SYSY cells (ATCC) were cultured in DMEM containing 10% fetal bovine serum and penicillin/streptomycin at 37° C. under 5% CO2. The cells were transfected using PolyFect reagent (Qiagen) according to the manufacturer's instructions. Primary cortical neurons from WT or PARP1 KO embryos were prepared. Briefly, the primary cortical neurons were cultured at embryonic day 16 in neurobasal media supplemented with B-27, 0.5 mM L-glutamine, penicillin and streptomycin (Invitrogen, Grand Island, NY). The neurons were replaced to fresh medium every 3-4 days. ABT-888 (10 μM), AG-014699 (1 μM), BMN 673 (10 μM), Z-VAD (20 μM), Nec-1 (20 μM) or 3-MA (500 μM) was pretreated to neurons 1 h before α-syn PFF treatment. α-syn PFF were added at 7 days in vitro (DIV) and further incubated for indicated times followed by cell death assay or biochemical experiments. Primary neurons were infected with AAV2-control sgRNA or AAV2-PARP1 sgRNA (ViGene Bioscineces, Rockville, MD, USA), and AAV-α-syn WT or AAV-α-syn A53T at DIV 4-5.
Percent of cell death was determined by staining with 7 μM Hoechst 33342 and 2 μM propidium iodide (PI) (Invitrogen, Carlsbas, CA). Images were taken and counted by Zeiss microscope equipped with automated computer assisted software (Axiovision 4.6, Carl Zeiss, Dublin, CA, USA).

The test system of the next test is SH-SYSY cells. Kind of test: α-syn aggregation and PARP activation in SH-SYSY cells transfected with α-syn (MNNG or PAR delivery). Format: cell-based. The conditions noted are these: for MNNG-induced PARP activation / MNNG-induced α-syn aggregation: 10 μM ABT-888 or 1 μM AG-014699 1 h, then 50 μM MNNG 15 min.
For test [1], the system named is α-syn. The test can be described thus: α-syn aggregation and PARP activation in primary cortical neurons transduced with AAV-α-syn (NMDA or PAR delivery). To be noted: for NMDA-induced PARP activation / NMDA-induced α-syn aggregation: 10 μM ABT-888 or 1 μM AG-014699 1 h, then 500 μM NMDA 5 min. The test is classed as cell-based, mouse.
In the next test the target is T1, PARP (Mus musculus, UniProt P11103).
T1 construct: Primary cortical neurons from WT or PARP1 KO embryos were prepared; endogenous in cells; host or cells: primary mouse cortical neurons (embryonic day 16)
The test can be described thus: α-syn PFF-induced PARP activation (PAR accumulation) in primary cortical neurons, western blot. Format: cell-based. To be noted: inhibitor pre-incubated 1 h (ABT-888 10 μM, AG-014699 1 μM, BMN 673 10 μM), then α-syn PFF. In general terms: A western blot detects proteins with antibodies after separation by electrophoresis.

For test [2], the system named is α-syn. Kind of test: In vitro fibrillization of recombinant α-syn (immunoblot, thioflavin T, TEM). Format: biochemical, mouse. The conditions noted are these: for α-syn fibrillization with other polymer or monomer: 5 nM, 36 h.
The subject of another test is WT mice. Kind of test: Intrastriatal injection of PAR-α-syn PFF, α-syn PFF or PAR in WT mice. Format: in vivo, mouse. The source says: There is no significant loss of DA neuron contralateral to the injection side at any time point (FIGS. 81 and 82).
Setting [3] is: WT cultures, 500 μM NMDA 5 min, 6 h after.

Residues, ends and D or L forms follow the SMILES beside them. *: point of attachment. Cbz = O=C(OCc1ccccc1)*; CH2F = FC*

T1 sequence (P11103 whole entry): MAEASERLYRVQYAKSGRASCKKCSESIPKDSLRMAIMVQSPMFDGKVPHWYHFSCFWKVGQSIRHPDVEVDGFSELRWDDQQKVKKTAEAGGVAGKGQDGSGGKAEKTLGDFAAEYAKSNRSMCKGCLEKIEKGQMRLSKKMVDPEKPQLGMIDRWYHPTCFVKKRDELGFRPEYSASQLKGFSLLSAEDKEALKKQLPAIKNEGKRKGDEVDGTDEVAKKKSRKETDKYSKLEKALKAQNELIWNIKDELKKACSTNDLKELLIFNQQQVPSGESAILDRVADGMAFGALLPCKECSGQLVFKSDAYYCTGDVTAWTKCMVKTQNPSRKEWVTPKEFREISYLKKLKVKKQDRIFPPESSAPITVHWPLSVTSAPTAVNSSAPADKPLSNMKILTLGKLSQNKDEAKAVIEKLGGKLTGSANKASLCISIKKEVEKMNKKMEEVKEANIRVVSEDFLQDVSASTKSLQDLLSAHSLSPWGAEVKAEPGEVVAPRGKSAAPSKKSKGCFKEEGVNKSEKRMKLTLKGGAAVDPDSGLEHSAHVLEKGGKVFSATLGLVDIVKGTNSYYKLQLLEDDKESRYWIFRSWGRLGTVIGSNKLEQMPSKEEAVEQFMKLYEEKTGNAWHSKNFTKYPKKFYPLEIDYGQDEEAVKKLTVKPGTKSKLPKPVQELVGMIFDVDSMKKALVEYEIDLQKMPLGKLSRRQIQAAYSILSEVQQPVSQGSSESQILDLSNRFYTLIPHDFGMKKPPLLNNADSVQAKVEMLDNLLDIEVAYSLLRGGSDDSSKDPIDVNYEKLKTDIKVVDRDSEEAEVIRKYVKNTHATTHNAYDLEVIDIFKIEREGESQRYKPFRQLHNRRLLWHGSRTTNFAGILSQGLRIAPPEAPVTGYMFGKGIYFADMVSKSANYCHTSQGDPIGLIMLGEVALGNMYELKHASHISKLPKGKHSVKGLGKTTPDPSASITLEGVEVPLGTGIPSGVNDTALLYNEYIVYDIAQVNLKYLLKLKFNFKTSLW

Turning to `Cn1cnc(N)c2ncnc1-2` [3-Methyladenine], in the test on primary cortical neurons, the “α-syn PFF toxicity (cell death, FIGS. 47 and 48)” value (from here on “α-syn PFF toxicity”) is reported as “had no effect”.

As to `C[C@]1(c2nc3c(C(N)=O)cccc3[nH]2)CCCN1` [ABT-888, veliparib], in the test on SH-SYSY cells, the “MNNG-induced PARP activation” value is “prevent” and the “MNNG-induced α-syn aggregation” value is on record as “prevent”. In the test with α-syn [1], the “NMDA-induced PARP activation” value was “prevent” and the “NMDA-induced α-syn aggregation” value is listed as “prevent”. In the test on primary cortical neurons, the “α-syn PFF-mediated cell death (PI staining)” value (“α-syn PFF-mediated cell death” below) is “prevents”; the “α-syn PFF toxicity” value is “prevents α-syn PFF toxicity”. Besides, the “α-syn PFF-mediated PARP activation” value at PARP is recorded as “prevents”.

Take `Nc1ncnc2c1ncn2[C@@H]1O[C@H](COP(=O)(O)OP(=O)(O)OC[C@H]2OC(O)[C@H](O)[C@@H]2O)[C@@H](O)[C@H]1O` (some centres unmarked) [ADP ribose monomer, ADP ribose]: the “α-syn fibrillization with other polymer or monomer” value in the test on α-syn [2] (37° C.) was “had no effect on α-syn fibrillization”.

In the case of `CNCc1ccc(-c2[nH]c3cc(F)cc4c3c2CCNC4=O)cc1` [AG-014699, Rucaparib], in the test on SH-SYSY cells, the “MNNG-induced PARP activation” value is given as “prevent” and the “MNNG-induced α-syn aggregation” value is “prevent”. Further, in the test with α-syn [1], the “NMDA-induced PARP activation” value is reported as “prevent” and the “NMDA-induced α-syn aggregation” value is given as “prevent”. Also, the “α-syn PFF-mediated cell death” value in the test with primary cortical neurons is given as “prevents”. In addition, the “α-syn PFF-mediated PARP activation” value at PARP is on record as “prevents”.

For `Cn1ncnc1[C@H]1c2n[nH]c(=O)c3cc(F)cc(c23)N[C@@H]1c1ccc(F)cc1` [BMN 673, Talazoparib], the “α-syn PFF-mediated cell death” value with primary cortical neurons is “prevents”. At PARP, the “α-syn PFF-mediated PARP activation” value is “prevents”.

With `CN[C@H](CC(=O)O)C(=O)O` [NMDA, N-methyl-D-aspartate], in the test with α-syn [1] (setting [3]), the “activation of PARP, PAR immunoblot” value is recorded as “leads to activation of PARP” and the “aggregation of α-syn after NMDA” value is given as “concomitant aggregation of α-syn”.

As to `CN1C(=O)C(Cc2c[nH]c3ccccc23)NC1=S` (centres unmarked) [Necrostatin-1], the “α-syn PFF toxicity” value in the test with primary cortical neurons is “had no effect”.

As to `COC(=O)C[C@H](NC(=O)[C@H](C)NC(=O)[C@@H](NC(=O)OCc1ccccc1)C(C)C)C(=O)CF` [Z-VAD-FMK] (Cbz-Val-Ala-Asp(OMe)-CH2F), the “α-syn PFF toxicity” value with primary cortical neurons was “partially reduces α-syn PFF toxicity”; with primary cortical neurons (listed as ZVAD), “modest neuroprotection”.

On to Poly(ADP-ribose) [PAR], for which, in the test with SH-SYSY cells (SH-SYSY WT and SH-SYSY PARP-1 KO cultures), the “aggregation of α-syn after exogenous PAR” value is reported as “increased the aggregation of α-syn”. The “earliest time different molecular weight forms of α-syn observed” value in the test with α-syn [2] (5 nM PAR, 37° C.) came out at 24 h. For the same compound, the “fibrillization of α-syn, immunoblot” value in the test on α-syn [2] (5 nM PAR, 37° C., agitated) was “markedly accelerated”. In addition, the “effect of temperature on α-syn fibrillization” value in the test with α-syn [2] (5 nM PAR, indicated temperatures, 72 h) is listed as “causes the fibrillization of α-syn at temperatures that are not permissive for α-syn fibrillization in the absence of PAR”. Further, in the test on α-syn [2] (36 hours), the “PAR concentration of peak α-syn aggregation” value was determined as 5 nM, the “α-syn fibrillization at 1 nM PAR” value is “capable of enhancing α-syn fibrillization” and the “α-syn fibrillization at 20 nM PAR” value is on record as “does not appreciably increase α-syn fibrillization”. Besides, the “α-syn fibrils, TEM” value in the test on α-syn [2] (in the presence of PAR, 37° C.) is listed as “extensively fibrillated at 12 hours”. Moreover, in the test with α-syn [2] (without α-syn), the “thioflavin T fluorescence, PAR alone” value is recorded as “has no effect on thioflavin T fluorescence”. The “fibrillization of α-syn, thioflavin T fluorescence” value with α-syn [2] (α-syn with PAR) was “accelerates the fibrillization of α-syn”. For the same compound, in the test with α-syn [1] (WT and PARP-1 KO cultures transduced with AAV-α-syn), the “aggregation of α-syn after exogenous PAR via Bioporter” value is “increases the aggregation of α-syn”. For the same compound, in the test with primary cortical neurons (20 nM, 14 days), the “neuronal cell death by PAR itself” value is reported as “does not cause significant cell death”. In addition, in the test on WT mice (1, 3 and 6 months), the “DA concentration in the contralateral striatum, HPLC” value is “no significant difference of DA concentration” and the “DA neuron number after PAR injection by itself” value is “has no effect on DA neuron number”. Further, the pole test entry with WT mice (3 months) is listed as “no significant deficits”.

As for PolyA, the “α-syn fibrillization with other polymer or monomer” value in the test with α-syn [2] (37° C.) is “had no effects on α-syn fibrillization”.
